The numbers were not newly measured in patent US20170143675A1, “FORMULATIONS FOR TREATMENT OF HYPERTHYROIDISM” (DENDROPHARM GMBH, priority 2014, published 2017), which cites them from elsewhere.

Where two headings read alike, the source gives them in different places.

The subject of series [1] is cats. The settings on record: randomized trial.

Consider `Cn1ccnc1S` [methimazole, 2-mercapto-1-methylimidazole], for which, under “after a single dose in PLO”, the transdermal uptake entry is recorded as “poor”. Where the note is “chronic transdermal administration in PLO”, the “reduction of the serum T4 concentration” value is recorded as “effective”. Further, the “cats with gastrointestinal side effects” value in series [1] (oral administration) was 24%; in series [1] (transdermal administration in PLO), 4%.
